# Experimental data reported in patent publication US11234982B2, “Methods for treating ocular surface pain” (NOVARTIS AG, priority 2019, dated 2022).
# Tested on: postoperative ocular pain in patients undergoing photorefractive keratectomy (PRK) surgery
# Experiment: PRK study: visual analog scale (VAS) pain assessment
# Format: in vivo, human
# Protocol: The study was a proof of concept, double-masked, randomized, vehicle-controlled study of compound I administered as eye drops in addition to standard of care treatment in patients after PRK surgery. PRK surgery was performed as an outpatient procedure under topical anesthesia with removal of the corneal epithelium to expose the stroma for the laser ablation. Compound I dosing was as single eye drop of 2.5% (25 mg/ml, 0.925 mg/drop), administered four times daily (every six hours) in one eye from immediate post-op (time 0) to last dose at 72 hours.
# The study consisted of 2 treatment periods using a crossover design. Patients underwent PRK surgery on 2 separate occasions (periods), one eye at a time. Patients were randomized to receive either compound 1 or vehicle following procedure 1 and the alternate following procedure 2.
# Forty patients were randomized in a 1:1 ratio to two sequences: compound I during period 1, followed by vehicle in period 2, or vehicle during period 1 followed by compound I during period 2. Each patient was administered one drop four times daily for 72 hours following PRK surgery on their study eye (Day 1, Periods 1 and 2). The initial study eye was the non-dominant eye as established at screening and in agreement of the patient and the investigator. The patients returned for follow-up visits on Days 2, 3, 4 and 8 of Period 1 after surgery in the first eye, with optional daily visits to follow the patient until wound healing was complete. The second eye surgery was not performed if any complications were noticed.
# Patient subjective experience of pain was recorded using VAS, a numeric assessment of pain between 0 and 100, with 0 representing no pain, and 100 representing worst imaginable pain. […] Since it was important clinically to both decrease the maximum pain as well as the overall pain that the patient experiences during the immediate postoperative period, the two periods of 6 hours and up to 12 hours postoperatively, were evaluated as primary endpoints. All evaluable VAS data was collected using an ePRO, which was an electronic device (cell phone with software application), on which patients marked their pain levels at the appropriate time points.
# Rescue oral analgesics: It is not ethical to refuse pain control medication to patients postoperatively as part of a clinical trial. […] Because the use of oral rescue medication may be a potential confounder of the pain VAS evaluation, three approaches were used when analyzing pain VAS scores to account for the influence of pain meds (assuming 4 hours of rescue medication effect): (1) any recorded VAS score within 4 hours after use of rescue medication was considered missing; (2) all the recorded VAS scores was used; and (3) any recorded VAS scores within 4 hours after rescue medication use was imputed by the record taken prior to the rescue medication.
# [1] = 2.5% four times daily after PRK
# [2] = 2.5% four times daily after PRK, VAS 0-100
# [3] = 2.5% four times daily after PRK, VAS 0-100, ORM-adjusted, N = 30
structure (smiles),measurement,setting,value
"CC(C)c1nc2cc(O)ccc2c(=O)n1-c1ccc(C#N)cc1 [Compound I, 4-(7-hydroxy-2-isopropyl-4-oxo-4H-quinazolin-3-yl)-benzonitrile]",VAS 0-12 hours post-operatively: % Diff compound I vs. Vehicle,[1],−22%
same,VAS at 6 hours post-operatively: % Diff compound I vs. Vehicle,[1],−25%
same,VAS 0-12 hours post-operatively: Diff (compound I-Vehicle) of model based means,[2],−8.56
same,VAS at 6 hours post-operatively: Diff (compound I-Vehicle) of model based means,[2],−11.1
same,Model estimated mean VAS pain severity score 0-12 hours post-operatively,[3],30.90
same,Model estimated mean VAS pain severity score at 6-hours post-operatively,[3],34.63
same,Mean change in VAS score one-half hour after instillation of eye drop,6.5 hours vs 6 hours post-operative,−3.1
same,Mean change in VAS score one-half hour after instillation of eye drop,18.5 hours vs 18 hours post-operative,2.8
same,Mean change in VAS score one-half hour after instillation of eye drop,24.5 hours vs 24 hours post-operative,1.3
same,VAS pain severity scores vs Vehicle up to 36 hours after surgery,all scheduled time points,lower for compound I than Vehicle at all scheduled time points up to and including 36 hours after surgery
same,Difference between compound I and Vehicle VAS scores from 36 to 72 hours after PRK surgery,no statistically significant difference at p 0.10,only marginally different
same,VAS pain severity scores vs Vehicle during the first 18 hours after surgery,"p-value threshold 0.10, 6 out of the 7 time points, starting with hour 1",statistically significantly lower VAS pain severity scores
